Experimental data from US5910504A, “Hetero-aromatic ring substituted phenyloxazolidinone antimicrobials” (Pharmacia & Upjohn, priority 1997, dated 1999).
Converted amounts (≈) assume the structure as drawn.

What was measured:
S. aureus, UC 9213 [1] = assay: In vitro activity: minimum inhibitory concentration (MIC) by agar dilution, S. aureus; assay type: cell-based; conditions: Staphylococcus aureus, UC9213; agar dilution; read-out: Minimum Inhibitory Concentration, S. aureus, UC 9213
Source text: (§1) The oxazolidinone antibacterial agents of this invention have useful activity against a variety of organisms. The in vitro activity of compounds of this invention can be assessed by standard testing procedures such as the determination of minimum inhibitory concentration (MIC) by agar dilution as desribed in "Methods for Dilution Antimicrobial Susceptibility Tests for Bacteria That Grow Aerobically" (MFT) published January 1983 by the National Committee for Clinical Laboratory Standards, 771 East Lancaster Avenue, Villanova, Pa. 19084, USA. The activity of selected compounds of this invention against Staphylococcus aureus and Streptococcus pneumoniae are shown in Table 1.

S. pneumoniae, UC 9912 = assay: In vitro activity: minimum inhibitory concentration (MIC) by agar dilution, S. pneumoniae; assay type: cell-based; conditions: Streptococcus pneumoniae, UC9912; agar dilution; read-out: Minimum Inhibitory Concentration, S. pneumoniae, UC 9912
Source text: as §1

S. aureus, UC 9213 [2] = assay: In vivo antimicrobial activity, Murine Assay procedure; design: species or system Staphylococcus aureus (infected female mice); conditions: Staphylococcus aureus, UC9213, 144 h; female mice, i.p. infection; drug 1 h and 5 h after infection, oral or subcutaneous; six-day survival, probit; read-out: ED50, S. aureus, UC 9213
Protocol: Antimicrobial activity was tested in vivo using the Murine Assay procedure. Groups of female mice (six mice of 18-20 grams each) were injected intraperitoneally with bacteria which were thawed just prior to use and suspended in brain heart infusion with 4% brewers yeast UC9213 (Staphylococcus aureus) or brain heart infusion (Streptococcus species). Antibiotic treatment at six dose levels per drug was administered one hour and five hours after infection by either oral intubation or subcutaneous ("subcut.") routes. Survival was observed daily for six days. ED50 values based on mortality ratios were calculated using probit analysis. The subject compounds were compared against a well-known antimicrobial (Vancomycin) as a control.

Compound	MIC (S. aureus, UC 9213 [1])	MIC (S. pneumoniae, UC 9912)	ED50 (S. aureus, UC 9213 [2])
CC(=O)NC[C@H]1CN(c2ccc(-n3cncn3)c(F)c2)C(=O)O1 [Example 4, (S)-N-[[3-[3-Fluoro-4-(1H-1,2,4-triazol-1-yl)phenyl]-2-oxo-5-oxazolidinyl]methyl]acetamide]	4 µg/mL (≈ 12.5 µM)	1 µg/mL (≈ 3.13 µM)	5.7 mg/kg
CC(=O)NC[C@H]1CN(c2ccc(-n3ccnn3)c(F)c2)C(=O)O1 [Example 6, (S)-N-[[3-[3-Fluoro-4-(1H-1,2,3-triazol-1-yl)phenyl]-2-oxo-5-oxazolidinyl]methyl]acetamide]	1 µg/mL (≈ 3.13 µM)	< 0.5 µg/mL	4.7 mg/kg
O=C(NC[C@H]1CN(c2ccc(-n3ccnn3)c(F)c2)C(=O)O1)C(Cl)Cl [Example 7, (S)-N-[[3-[3-Fluoro-4-(1H-1,2,3-triazol-1-yl)phenyl]-2-oxo-5-oxazolidinyl]methyl]-2,2-dichloroacetamide]	1 µg/mL (≈ 2.58 µM)	< 0.5 µg/mL	11.9 mg/kg
CC(=O)NC[C@H]1CN(c2ccc(-n3cnnc3S)c(F)c2)C(=O)O1 [Example 9, (S)-N-[[3-[3-Fluoro-4-(3-mercapto-4H-1,2,4-triazol-4-yl)phenyl]-2-oxo-5-oxazolidinyl]methyl]acetamide]	> 32 µg/mL	8 µg/mL (≈ 22.8 µM)	
CSc1nncn1-c1ccc(N2C[C@H](CNC(C)=O)OC2=O)cc1F [Example 10, (S)-N-[[3-[3-Fluoro-4-(3-methylthio-4H-1,2,4-triazol-4-yl)phenyl]-2-oxo-5-oxazolidinyl]methyl]acetamide]	8 µg/mL (≈ 21.9 µM)	1 µg/mL (≈ 2.74 µM)	
CC(=O)NC[C@H]1CN(c2ccc(-n3ccc(CO)c3)c(F)c2)C(=O)O1 [Example 13, (S)-N-[[3-[3-Fluoro-4-(3-hydroxymethyl-1H-pyrrol-1-yl)phenyl]-2-oxo-5-oxazolidinyl]methyl]acetamide]	1 µg/mL (≈ 2.88 µM)	0.25 µg/mL (≈ 0.72 µM)	

Now from value to molecule, other results behind:

MIC (S. aureus, UC 9213 [1])	MIC (S. pneumoniae, UC 9912)	Compound	ED50 (S. aureus, UC 9213 [2])
< 0.5 µg/mL	< 0.5 µg/mL	CC(=O)NC[C@H]1CN(c2ccc(-n3cccc3)c(F)c2)C(=O)O1 [Example 1, (S)-N-[[3-[3-Fluro-4-(1H-pyrrol-1-yl)phenyl]-2-oxo-5-oxazolidinyl]methyl]acetamide]	
2 µg/mL (≈ 6.28 µM)	1 µg/mL (≈ 3.14 µM)	CC(=O)NC[C@H]1CN(c2ccc(-n3cccn3)c(F)c2)C(=O)O1 [Example 2, (S)-N-[[3-[3-Fluoro-4-(1H-pyrazol-1-yl)phenyl]-2-oxo-5-oxazolidinyl]methyl]acetamide]	
2 µg/mL (≈ 6.28 µM)	< 0.5 µg/mL	CC(=O)NC[C@H]1CN(c2ccc(-n3ccnc3)c(F)c2)C(=O)O1 [Example 3, (S)-N-[[3-[3-Fluoro-4-(1H-imidazol-1-yl)phenyl]-2-oxo-5-oxazolidinyl]methyl]acetamide]	9.5 mg/kg
4 µg/mL (≈ 10.9 µM)	1 µg/mL (≈ 2.72 µM)	CC(=O)NC[C@H]1CN(c2ccc(-n3ccc4ccccc43)c(F)c2)C(=O)O1 [Example 5, (S)-N-[[3-[3-Fluoro-4-(1H-indol-1-yl)phenyl]-2-oxo-5-oxazolidinyl]methyl]acetamide]	
4 µg/mL (≈ 12.5 µM)	1 µg/mL (≈ 3.13 µM)	CC(=O)NC[C@H]1CN(c2ccc(-n3nccn3)c(F)c2)C(=O)O1 [Example 8, (S)-N-[[3-[3-Fluoro-4-(2H-1,2,3-triazol-2-yl)phenyl]-2-oxo-5-oxazolidinyl]methyl]acetamide]	
> 16 µg/mL	1 µg/mL (≈ 3.13 µM)	CC(=O)NC[C@H]1CN(c2ccc(-n3cnnc3)c(F)c2)C(=O)O1 [Example 11, (S)-N-[[3-[3-Fluoro-4-(4H-1,2,4-triazol-4-yl)phenyl]-2-oxo-5-oxazolidinyl]methyl]acetamide]	
0.25 µg/mL (≈ 0.724 µM)	< 0.06 µg/mL	CC(=O)NC[C@H]1CN(c2ccc(-n3ccc(C=O)c3)c(F)c2)C(=O)O1 [Example 12, (S)-N-[[3-[3-Fluoro-4-(1H-pyrrol-1-yl-3-carboxaldehyde)phenyl]-2-oxo-5-oxazolidinyl]methyl]acetamide]	
